Non-standard residues stand in square brackets, D forms with d. Residues, ends and D or L forms follow the SMILES beside them.
System: drug-resistant Mycobacterium tuberculosis
Details: 5 micrograms per ml

Compound: CC(C)C[C@H](NC(=O)[C@H](CC(C)C)NC(=O)[C@@H](Cc1c[nH]c2ccccc12)NC(=O)[C@H](Cc1ccccc1)NC(=O)[C@@H](Cc1c[nH]c2ccccc12)NC(=O)[C@H](CCC(N)=O)NC(=O)[C@H](CCC(N)=O)NC(=O)[C@@H]1CCCN1C(=O)[C@H](CCCCN)NC(=O)[C@@H]1CCCN1C(=O)[C@@H](CCCNC(=N)N)NC(=O)[C@@H]1CCCN1C(=O)CNC(=O)[C@H](CC(C)C)NC(=O)[C@H](CC(C)C)NC(=O)[C@H](Cc1ccc(O)cc1)NC(=O)CNC(=O)[C@H](C)NC(=O)[C@H](CO)NC(=O)[C@H](CC(N)=O)NC(=O)[C@H](CC(C)C)NC(=O)[C@@H](NC(=O)[C@H](Cc1c[nH]c2ccccc12)NC(=O)CN)[C@@H](C)O)C(N)=O [Spantide-I, Gly-Trp-Thr-Leu-Asn-Ser-Ala-Gly-Tyr-Leu-Leu-Gly-Pro-D-Arg-Pro-Lys-Pro-Gln-Gln-D-Trp-Phe-D-Trp-Leu-Leu-NH2] (H-GWTLNSAGYLLGP[dR]PKPQQ[dW]F[dW]LL-NH2)
- % inhibition: 100.0%
